Test results: US7009052B2, “Sulfonamide derivatives” (Warner Lambert Company LLC, priority 2003, dated 2006)
pIC50: −log10 of the molar value.

target: T1, androgen receptor (Homo sapiens, UniProt P10275); experiment: AR Antagonist Cell Assay (MMTV-luciferase reporter, DHT-induced); format: cell-based; details: MDA-MB453-MMTV clone 54-19 cells, 100 pM DHT, 17 hr
T1 sequence (P10275 1-920 Q868H): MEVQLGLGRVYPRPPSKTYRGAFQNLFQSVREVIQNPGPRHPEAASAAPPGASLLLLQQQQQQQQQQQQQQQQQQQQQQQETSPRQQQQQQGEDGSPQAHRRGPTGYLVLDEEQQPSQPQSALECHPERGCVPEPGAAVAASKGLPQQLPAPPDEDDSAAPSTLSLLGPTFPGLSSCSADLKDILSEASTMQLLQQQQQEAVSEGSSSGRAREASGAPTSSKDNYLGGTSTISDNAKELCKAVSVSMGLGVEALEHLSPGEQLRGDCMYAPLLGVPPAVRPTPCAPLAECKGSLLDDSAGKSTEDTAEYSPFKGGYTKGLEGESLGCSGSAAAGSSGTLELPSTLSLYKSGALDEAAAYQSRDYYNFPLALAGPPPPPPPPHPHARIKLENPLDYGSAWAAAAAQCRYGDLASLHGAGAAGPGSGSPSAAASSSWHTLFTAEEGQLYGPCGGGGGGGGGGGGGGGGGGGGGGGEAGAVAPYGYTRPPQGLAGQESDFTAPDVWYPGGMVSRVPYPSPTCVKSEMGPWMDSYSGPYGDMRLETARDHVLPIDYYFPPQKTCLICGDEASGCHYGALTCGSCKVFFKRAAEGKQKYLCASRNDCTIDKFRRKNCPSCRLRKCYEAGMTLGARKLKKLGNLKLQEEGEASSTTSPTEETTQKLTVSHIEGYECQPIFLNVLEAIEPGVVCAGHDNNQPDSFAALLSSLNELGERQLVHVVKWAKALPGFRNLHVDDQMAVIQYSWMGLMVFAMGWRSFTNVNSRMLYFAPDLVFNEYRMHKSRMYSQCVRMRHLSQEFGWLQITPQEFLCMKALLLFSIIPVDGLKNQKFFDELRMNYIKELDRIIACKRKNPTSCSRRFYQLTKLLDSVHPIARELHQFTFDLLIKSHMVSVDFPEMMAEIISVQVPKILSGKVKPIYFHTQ
Procedure, shortened: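 Stably transfected MDA-MB453 cells carrying an ARE-containing MMTV promoter–firefly luciferase reporter, pretreated 30 min with compound at 10 uM or 1 uM in 1% charcoal-treated serum medium. Then stimulated with 100 pM DHT for 17 hr at 37° C. and luminescence read; expressed as % inhibition of DHT-induced signal.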

pIC50 | Structure (SMILES)
5.26 | Cc1cccc(Cl)c1CNS(=O)(=O)c1ccc2[nH]c(=O)cc(C(F)(F)F)c2c1 [Example 144, 2-Oxo-4-trifluoromethyl-1,2-dihydroquinoline-6-sulfonic acid2-chloro-6-methylbenzylamide]
< 5.00 | Cc1ccc(CNS(=O)(=O)c2ccc3[nH]c(=O)cc(C(F)(F)F)c3c2)c(F)c1F [Example 145, 2-Oxo-4-trifluoromethyl-1,2-dihydroquinoline-6-sulfonic acid2,3-difluoro-4-methylbenzylamide]
5.18 | O=c1cc(C(F)(F)F)c2cc(S(=O)(=O)NCc3cc(Cl)ccc3F)ccc2[nH]1 [Example 146, 2-Oxo-4-trifluoromethyl-1,2-dihydroquinoline-6-sulfonic acid5-chloro-2-fluorobenzylamide]
5.65 | O=c1cc(C(F)(F)F)c2cc(S(=O)(=O)N[C@H]3[C@@H]4CC[C@@H](C4)[C@H]3CO)ccc2[nH]1 [Example 148, 2-Oxo-4-trifluoromethyl-1,2-dihydroquinoline-6-sulfonic acid(3-hydroxy-methylbicyclo[2.2.1]hept-2-yl)]
< 5.00 | COc1cc(CNS(=O)(=O)c2ccc3[nH]c(=O)cc(C(F)(F)F)c3c2)cc(OC)c1 [Example 149, 2-Oxo-4-trifluoromethyl-1,2-dihydroquinoline-6-sulfonic acid3,5-dimethoxybenzylamide]
5.74 | CC(C)(Cc1ccc(F)cc1)NS(=O)(=O)c1ccc2[nH]c(=O)cc(C(F)(F)F)c2c1 [Example 150, 2-Oxo-4-trifluoromethyl-1,2-dihydroquinoline-6-sulfonic acid[2-(4-fluorophenyl)-1,1-dimethylethyl]amide]
6.14 | O=c1cc(C(F)(F)F)c2cc(S(=O)(=O)NCc3ccccc3OC(F)F)ccc2[nH]1 [Example 151, 2-Oxo-4-trifluoromethyl-1,2-dihydroquinoline-6-sulfonic acid2-difluoromethoxybenzylamide]
< 5.00 | Cc1ccc(F)c(CNS(=O)(=O)c2ccc3[nH]c(=O)cc(C(F)(F)F)c3c2)c1Cl [Example 152, 2-Oxo-4-trifluoromethyl-1,2-dihydroquinoline-6-sulfonic acid2-chloro-6-fluoro-3-methylbenzylamide]
6.12 | O=c1cc(C(F)(F)F)c2cc(S(=O)(=O)NCc3ccccc3C(F)(F)F)ccc2[nH]1 [Example 153, 2-Oxo-4-trifluoromethyl-1,2-dihydroquinoline-6-sulfonic acid2-trifluoromethylbenzylamide]
5.66 | O=c1cc(C(F)(F)F)c2cc(S(=O)(=O)NCCSCc3c(F)cccc3Cl)ccc2[nH]1 [Example 154, 2-Oxo-4-trifluoromethyl-1,2-dihydroquinoline-6-sulfonic acid[2-(2-chloro-6-fluorobenzylsulfanyl)ethyl]amide]
5.71 | O=c1cc(C(F)(F)F)c2cc(S(=O)(=O)NCc3ccccc3Sc3ccccc3CO)ccc2[nH]1 [Example 155, 2-Oxo-4-trifluoromethyl-1,2-dihydroquinoline-6-sulfonic acid2-(2-hydroxymethyl-phenylsulfanyl)benzylamide]
5.67 | O=c1cc(C(F)(F)F)c2cc(S(=O)(=O)NCc3ccccc3Br)ccc2[nH]1 [Example 156, 2-Oxo-4-trifluoromethyl-1,2-dihydroquinoline-6-sulfonic acid2-bromobenzylamide]
5.17 | O=c1cc(C(F)(F)F)c2cc(S(=O)(=O)NCCCO)ccc2[nH]1 [Example 157, 2-Oxo-4-trifluoromethyl-1,2-dihydroquinoline-6-sulfonic acid(3-hydroxypropyl)amide]
5.18 | O=c1cc(C(F)(F)F)c2cc(S(=O)(=O)NCc3cc(C(F)(F)F)ccc3F)ccc2[nH]1 [Example 158, 2-Oxo-4-trifluoromethyl-1,2-dihydroquinoline-6-sulfonic acid2-fluoro-5-trifluoromethylbenzylamide]
5.81 | O=c1cc(C(F)(F)F)c2cc(S(=O)(=O)NCC(c3ccccc3)c3ccccc3)ccc2[nH]1 [Example 159, 2-Oxo-4-trifluoromethyl-1,2-dihydroquinoline-6-sulfonic acid(2,2-diphenylethyl)amide]
< 5.00 | O=c1cc(C(F)(F)F)c2cc(S(=O)(=O)N[C@H]3CCCC[C@H]3OCc3ccccc3)ccc2[nH]1 [Example 160, 2-Oxo-4-trifluoromethyl-1,2-dihydroquinoline-6-sulfonic acid(2-benzyloxycyclohexyl)amide]

Structure (SMILES) | pIC50
O=c1cc(C(F)(F)F)c2cc(S(=O)(=O)NCCc3c[nH]c4ccccc34)ccc2[nH]1 [Example 147, 2-Oxo-4-trifluoromethyl-1,2-dihydroquinoline-6-sulfonic acid[2-(1H-indol-3-yl)ethyl]amide] | 6.59
